“Also recorded” adds a separate entry of the source. Read-outs that look alike come from different tables or passages of the source.
How the values were obtained:
[1] = Bidirectional transport (Papp) across Caco-2 cell monolayer; format: in vitro ADME, human; conditions: human; for Papp at 90 min, 50 µM / Papp A→B at 90 min, 50 µM / Papp B→A at 90 min, 50 µM: Caco-2 monolayer; for Papp at 90 min, 50 µM: both directions; for efflux ratio at 90 min, 50 µM: Caco-2, Caco-2 monolayer, read-out: Efflux Ratio (Papp BL→AP to Papp AP→BL); for Papp A→B at 90 min, 50 µM / Papp B→A at 90 min, 50 µM: incubation up to 90 min, n = 3
Procedure: (§1) The Caco-2 cell monolayer permeability was carried out according to the previously reported method. Briefly, the Caco-2 cells were maintained in DMEM containing 10% FBS, 1% NEAA, 100 units/mL of penicillin, and 100 µg/mL of streptomycin, in a constant humidity atmosphere of 5% CO2 and 95% air at 37 °C. For confluence and differentiation, cells were seeded at a density of 1 × 10^5 cells/cm^2 into 12-well Transwell plates (insert diameter 12 mm, pore size 3.0 μm, membrane growth area 1.12 cm^2, Costar® #3402) and were allowed to grow for 21 days before the permeation experiment. On day 21, the monolayers with TEER values > 500 Ω·cm^2 were qualified for the transport experiment. The transport study was initiated by the careful removal of the culture medium from AP and BL sides of the inserts. Caco-2 monolayers were rinsed twice with pre-warmed HBSS and were incubated by pre-warmed HBSS for 30 min at 37 °C. […] The assayed solutions (50 µM) were added to the AP side (0.5 mL, for absorption transport) or BL side (1.5 mL, for efflux transport) of the inserts, while the receiving chamber contained the corresponding volume of HBSS. Incubation was performed at 37 °C for 90 min, with shaking at 50 rpm. Samples were collected from the inserts and lyophilized. The dried sample was then sonicated with the appropriate volume of MeOH, followed by centrifugation at 15,000× g for 10 min. The supernatant was filtered through a 0.45 μm filter and injected into HPLC system for quantitative analysis.
(§2) The AP to BL or BL to AP permeability coefficient (Papp) value of each compound was calculated based on the following equation:Papp = (dQ/dt) × (1/A) × (1/C0) (cm/s)(1) where dQ/dt is the rate of the appearance of the test compound on the receiver compartment (μmol/s), C0 is the initial test compound concentration on the donor compartment (μmol/mL), and A is the surface area of Caco-2 monolayer (cm^2).
(§3) While shaking the samples (37 °C, 50 rpm), 1.3 mL aliquots were taken from BL side or 0.45 mL aliquots were taken from AP side at 30 min intervals from […].
(§4) After shaking the samples (37 °C, 50 rpm) in a shaking water bath for 90 min, aliquots were collected as described above.

[2] = system: Caco-2 cell monolayer; experiment: as above; format: in vitro ADME, human; conditions: for Absorption designation: from Caco-2 Papp compared with propranolol and atenolol; for Time course of bilateral permeation: 0–180 min at 50 μM; for Transport mechanism / Efflux Ratio (Papp BL→AP to Papp AP→BL): Caco-2 monolayer; for Efflux Ratio (Papp BL→AP to Papp AP→BL): 90 min; for Concentration dependence of rate of membrane permeation: at 90 min within test range of concentration
Procedure: as §1, §2, §3, §4

[3] = Intracellular accumulation and total recovery (mass balance) at the end of transport; format: in vitro ADME, human; conditions: human, Caco-2, end of transport, n = 3
Procedure: (§5) To measure the amount of intracellular accumulation, the Caco-2 cells were rinsed three times with ice-cold HBSS at the end of transport experiments. After three freeze (−20 °C)-thaw (room temperature) cycles, the lysed Caco-2 cells were lyophilized. The dried cells were sonicated in 0.2 mL of 70% aqueous MeOH for 20 min and then centrifuged at 15,000× g for 10 min. The supernatant was filtered through a 0.45 μm filter and a 10 μL aliquot was injected into the HPLC system for analysis. To check the mass balance, the recoveries of the assayed compounds were measured at both sides of the insert and intracellular accumulation of the Caco-2 cells.

[4] = system: Caco-2 cell monolayer; experiment: as above; format: in vitro ADME, human
Procedure: as §5

[5] = system: Caco-2 cell monolayer; conditions: cited from earlier work; for Absorption designation: from previously reported Caco-2 Papp
[6] = Bidirectional transport (Papp) across Caco-2 cell monolayer; format: in vitro ADME; conditions: human, ratio of previously reported Papp values (refs 35, 36), read-out: Efflux Ratio (Papp BL→AP to Papp AP→BL)
[7] = end of transport, n = 3, –: not detected

SMILES	Papp at 90 min, 50 µM [1] [×10⁻⁶ cm/s]	recovery ([3]; read-out: Total recovery AP→BL) [%]	recovery ([3]; read-out: Total recovery BL→AP) [%]	efflux ratio at 90 min, 50 µM [1]	Papp A→B at 90 min, 50 µM [1] [×10⁻⁶ cm/s]	Papp B→A at 90 min, 50 µM [1] [×10⁻⁶ cm/s]	also measured
CC1(C)[C@@H](O[C@H]2O[C@H](C(=O)O)[C@@H](O)[C@H](O)[C@H]2O[C@@H]2O[C@H](C(=O)O)[C@@H](O)[C@H](O)[C@H]2O)CC[C@]2(C)[C@H]3C(=O)C=C4[C@@H]5C[C@@](C)(C(=O)O)CC[C@]5(C)CC[C@@]4(C)[C@]3(C)CC[C@@H]12 [Compound 1, glycyrrhizin]	< 0.1						Detection of compound in the receiving side ([2]; after incubation for 90 min, AP→BL and BL→AP): not detected; also recorded: below the lower limit of detection; Absorption designation [2]: very poorly absorbed; also recorded: poorly absorbed
CC1(C)[C@@H](O[C@@H]2O[C@H](C(=O)O)[C@@H](O)[C@H](O)[C@H]2O)CC[C@]2(C)[C@H]3C(=O)C=C4[C@@H]5C[C@@](C)(C(=O)O)CC[C@]5(C)CC[C@@]4(C)[C@]3(C)CC[C@@H]12 [Compound 2, glycyrrhetic acid-3-O-mono-β-D-glucuronide]	~1	97.04 ± 0.36	91.6 ± 1.27	1.06 to 1.11	1.55 ± 0.09	1.65 ± 0.95	Time course of bilateral permeation [2]: increased approximately linearly; Transport mechanism [2]: passive diffusion; Efflux Ratio (Papp BL→AP to Papp AP→BL) [2]: 1.06; Concentration dependence of rate of membrane permeation [2]: increased approximately linearly; Absorption designation [2]: moderately absorbed
CC1(C)[C@@H](O)CC[C@]2(C)[C@H]3C(=O)C=C4[C@@H]5C[C@@](C)(C(=O)O)CC[C@]5(C)CC[C@@]4(C)[C@]3(C)CC[C@@H]12 [Compound 3, glycyrrhetinic acid]	> 10	85.1 ± 2.33	98.24 ± 0.59	1.06 to 1.11	12.6 ± 0.4	14 ± 1.3	CA (cell accumulation) AP→BL [4, 7]: 0.25 ± 0.01%; Time course of bilateral permeation [2]: increased approximately linearly; Transport mechanism [2]: passive diffusion; Efflux Ratio (Papp BL→AP to Papp AP→BL) [2]: 1.11; Concentration dependence of rate of membrane permeation [2]: increased approximately linearly
C=CC(C)(C)c1cc(/C=C/C(=O)c2ccc(O)cc2)c(OC)cc1O [Compound 4, licochalcone A]		81.88 ± 0.67	90.4 ± 2.74	1.06	1.68 ± 0.13	1.78 ± 0.03	Cell accumulation / intracellular uptake (in words) ([4]; all bidirectional transport): higher intracellular uptake; also recorded: higher accumulation; Total recovery AP→BL ([4]; end of transport, n = 3): relatively lower; CA (cell accumulation) AP→BL [4, 7]: 50.52 ± 1.88%; CA (cell accumulation) BL→AP [4, 7]: 42.56 ± 2.36%; Absorption designation [2]: moderately absorbed
COc1c(/C=C/C(=O)c2ccc(O)cc2)ccc(O)c1O [Compound 5, licochalcone B]		96.2 ± 0.19	94.5 ± 2.89	1.22	24.7 ± 2.8	30.2 ± 2.4	
COc1c(/C=C/C(=O)c2ccc(O)cc2)ccc(O)c1CC=C(C)C [Compound 6, licochalcone C]		97.5 ± 1.26	96.1 ± 4.55	1.17	22.5 ± 1	26.4 ± 1.3	
COc1cc(O)ccc1/C=C/C(=O)c1ccc(O)cc1 [Compound 7, echinatin]		96.9 ± 2.67	97.7 ± 3.29	1.15	20.7 ± 1	23.8 ± 0.3	
O=C1C[C@@H](c2ccc(O)cc2)Oc2cc(O)ccc21 [Compound 9, liquiritigenin]	~10	87 ± 2.78	94.8 ± 4.29	0.88	17.8 ± 0.6	15.7 ± 0.3	Time course of bilateral permeation [2]: increased approximately linearly; Concentration dependence of rate of membrane permeation [2]: increased approximately linearly
O=C(/C=C/c1ccc(O)cc1)c1ccc(O)cc1O [Compound 11, isoliquiritigenin]							Papp BL→AP ([5]; Caco-2 monolayer): 9.35 ± 0.43 ×10^−6 cm/s
O=C(/C=C/c1ccc(O[C@@H]2O[C@H](CO)[C@@H](O)[C@H](O)[C@H]2O)cc1)c1ccc(O)cc1O [Compound 12, isoliquiritin]							Papp AP→BL ([5]; Caco-2 monolayer): 0.87 ± 0.02 ×10^−6 cm/s; Papp BL→AP ([5]; Caco-2 monolayer): 0.77 ± 0.07 ×10^−6 cm/s; Papp from AP to BL direction ([5]; Caco-2 monolayer): (8.69 ± 0.15) × 10^−7 cm/s; Papp from BL to AP direction ([5]; Caco-2 monolayer): (7.68 ± 0.66) × 10^−7 cm/s; Papp values (bidirectional) ([5]; Caco-2 monolayer): ≤ 0.1 ×10⁻⁶ cm/s; Absorption designation [5]: poorly absorbed; efflux ratio [6]: 0.89
O=C1C[C@@H](c2ccc(O[C@@H]3O[C@H](CO)[C@@H](O)[C@H](O)[C@H]3O)cc2)Oc2cc(O)ccc21 [Compound 13, liquiritin]							Papp AP→BL ([5]; Caco-2 monolayer): 0.54 ± 0.02 ×10^−6 cm/s; Papp BL→AP ([5]; Caco-2 monolayer): 0.53 ± 0.03 ×10^−6 cm/s; Papp from BL to AP direction ([5]; Caco-2 monolayer): (5.32 ± 0.31) × 10^−7 cm/s; Papp values (bidirectional) ([5]; Caco-2 monolayer): ~0.1 ×10⁻⁶ cm/s; Absorption designation [5]: poorly absorbed; efflux ratio [6]: 0.98
CC(C)NCC(O)COc1cccc2ccccc12 (stereo not shown) [propranolol, reference compound]							Papp ([1]; Caco-2, read-out: Papp of transport markers): 25.1 ×10⁻⁶ cm/s

Source: publication PMC6151599, “Intestinal Absorption of Triterpenoids and Flavonoids from Glycyrrhizae radix et rhizoma in the Human Caco-2 Monolayer Cell Model” (Molecules : A Journal of Synthetic Chemistry and Natural …, 2017)
